Data set [1] concerns promyelocyte leukemia cell strain HL-60. Nature of the data set: Test for induction of cell differentiation in HL-60 cells (NBT reduction ability). In kind it is cell-based. The note with it: for Ratio of cells for which differentiation was induced by each compound alone (%): calculated from NBT reduction ability; for Ratio of cells for which differentiation was induced by each compound in combination with 1 × 10^−7 M of HX630 (%): in combination with 1×10^−7 M HX630 (retinoid synergist). The protocol:
For each of the compounds of the examples, action for inducing cell differentiation was examined for each alone and in combination with 1×10^−7 M of HX630. According to the methods described in Japanese Patent Unexamined Publication (KOKAI) No. (Sho)61-76440/1986, differentiation of the cells of promyelocyte leukemia cell strain HL-60 into granulocytic series cells was determined based on morphological change and measurement of ability to reduce nitro blue tetrazolium (NBT). The ratios (%) of differentiated cells shown in the following table are those calculated from NBT reduction ability. HX630 is a retinoid synergist that enhances actions of retinoids, and the concentrations of −8, −7 and −6 mean that each compound was added at concentrations of 1×10^−8 M, 1×10^−7 M and 1×10^−6 M, respectively.

[2] abbreviates: compound concentration -6 (1×10^−6 M).
[3] abbreviates: compound concentration -7 (1×10^−7 M).
[4] abbreviates: compound concentration -8 (1×10^−8 M).

SMILES strings stand for the structures.

`CC1(C)CCC(C)(C)c2cc(-c3ccc(O)c(=O)cc3)ccc21` [Tp05] came in with a melting point of 161 °C. The “Ratio of cells for which differentiation was induced by each compound alone (%)” value in data set [1] (concentration -6 (1×10^−6 M)) is recorded as 13%. Moreover, in data set [1] (concentration -7 (1×10^−7 M)), the “Ratio of cells for which differentiation was induced by each compound alone (%)” value is listed as 0.5%. In data set [1] (concentration -8 (1×10^−8 M)), the “Ratio of cells for which differentiation was induced by each compound alone (%)” value is 0.6%. Moreover, in data set [1] (setting [2]), the “Ratio of cells for which differentiation was induced by each compound in combination with 1 × 10^−7 M of HX630 (%)” value was determined as 35%. Besides, the “Ratio of cells for which differentiation was induced by each compound in combination with 1 × 10^−7 M of HX630 (%)” value in data set [1] (setting [3]) is 1.2%. Further, the “Ratio of cells for which differentiation was induced by each compound in combination with 1 × 10^−7 M of HX630 (%)” value in data set [1] (setting [4]) is given as 1.2%.

Compound `COc1ccc(C(=O)Nc2ccc(O)c(=O)cc2)cc1C12CC3CC(CC(C3)C1)C2` [Tp88] had a melting point of 142 °C. In addition, the “Ratio of cells for which differentiation was induced by each compound alone (%)” value in data set [1] (concentration -6 (1×10^−6 M)) is recorded as 46%. In data set [1] (concentration -7 (1×10^−7 M)), the “Ratio of cells for which differentiation was induced by each compound alone (%)” value is listed as 1.2%. The “Ratio of cells for which differentiation was induced by each compound alone (%)” value in data set [1] (concentration -8 (1×10^−8 M)) is given as 0.9%. Also, the “Ratio of cells for which differentiation was induced by each compound in combination with 1 × 10^−7 M of HX630 (%)” value in data set [1] (setting [2]) is recorded as 62%. Moreover, the “Ratio of cells for which differentiation was induced by each compound in combination with 1 × 10^−7 M of HX630 (%)” value in data set [1] (setting [3]) is reported as 14%. For the same compound, the “Ratio of cells for which differentiation was induced by each compound in combination with 1 × 10^−7 M of HX630 (%)” value in data set [1] (setting [4]) was 2.6%.

In the case of `CC1(C)CCC(C)(C)c2cc(C=CC(=O)Nc3ccc(Cl)c(=O)cc3)ccc21` [Tp93], the “Ratio of cells for which differentiation was induced by each compound alone (%)” value is on record as 9% in data set [1] (concentration -6 (1×10^−6 M)), 0.8% in data set [1] (concentration -7 (1×10^−7 M)) and 0.6% in data set [1] (concentration -8 (1×10^−8 M)). Besides, the “Ratio of cells for which differentiation was induced by each compound in combination with 1 × 10^−7 M of HX630 (%)” value was 40% in data set [1] (setting [2]), 0.8% in data set [1] (setting [3]) and 3.6% in data set [1] (setting [4]).

Regarding `CC1(C)CCC(C)(C)c2cc(NC(=O)Nc3ccc(O)c(=O)cc3)ccc21` [Tp30], the figures for the “Ratio of cells for which differentiation was induced by each compound alone (%)” value in data set [1] (concentration -6 (1×10^−6 M)), in data set [1] (concentration -7 (1×10^−7 M)) and in data set [1] (concentration -8 (1×10^−8 M)) were 1.2%, 1.5% and 1.3%, respectively. In addition, the results for the “Ratio of cells for which differentiation was induced by each compound in combination with 1 × 10^−7 M of HX630 (%)” value in data set [1] (setting [2]), in data set [1] (setting [3]) and in data set [1] (setting [4]) were 20%, 2.3% and 2.5%, respectively.

Consider `CC1(C)CCC(C)(C)c2cc(C=CC(=O)Nc3ccc(O)c(=O)cc3)ccc21` [Tp90], for which the “Ratio of cells for which differentiation was induced by each compound alone (%)” value was 67% in data set [1] (concentration -6 (1×10^−6 M)), 0.9% in data set [1] (concentration -7 (1×10^−7 M)) and 0.7% in data set [1] (concentration -8 (1×10^−8 M)). Besides, the “Ratio of cells for which differentiation was induced by each compound in combination with 1 × 10^−7 M of HX630 (%)” value in data set [1] (setting [2]) came to 43%; in data set [1] (setting [3]), 2.1%; in data set [1] (setting [4]), 1.5%.

As to `O=C(Nc1ccc(O)c(=O)cc1)c1cc(C(F)(F)F)cc(C(F)(F)F)c1` [Tp60], the results for the “Ratio of cells for which differentiation was induced by each compound alone (%)” value in data set [1] (concentration -6 (1×10^−6 M)), in data set [1] (concentration -7 (1×10^−7 M)) and in data set [1] (concentration -8 (1×10^−8 M)) were 2.1%, 1.3% and 0.8%, respectively. The “Ratio of cells for which differentiation was induced by each compound in combination with 1 × 10^−7 M of HX630 (%)” value in data set [1] (setting [2]) turned out to be 37.8%; in data set [1] (setting [3]), 21.2%; in data set [1] (setting [4]) it was 2.2%.

Consider `Cc1cc2c(cc1Nc1ccc(O)c(=O)cc1)C(C)(C)CCC2(C)C` [Tp20], for which the results for the “Ratio of cells for which differentiation was induced by each compound alone (%)” value in data set [1] (concentration -6 (1×10^−6 M)), in data set [1] (concentration -7 (1×10^−7 M)) and in data set [1] (concentration -8 (1×10^−8 M)) were 2.7%, 1.8% and 2.1%, respectively. Besides, the “Ratio of cells for which differentiation was induced by each compound in combination with 1 × 10^−7 M of HX630 (%)” value was determined as 2.4% in data set [1] (setting [2]), 3.7% in data set [1] (setting [3]) and 4.6% in data set [1] (setting [4]).

For `CC1(C)CCC(C)(C)c2cc3sc(-c4ccc(O)c(=O)cc4)cc3cc21` [Tp260], the “Ratio of cells for which differentiation was induced by each compound alone (%)” value in data set [1] (concentration -6 (1×10^−6 M)) is on record as 55%; in data set [1] (concentration -7 (1×10^−7 M)), 20%; in data set [1] (concentration -8 (1×10^−8 M)), 10%. Moreover, the “Ratio of cells for which differentiation was induced by each compound in combination with 1 × 10^−7 M of HX630 (%)” value in data set [1] (setting [2]) amounted to 67%; in data set [1] (setting [3]), 83%; in data set [1] (setting [4]) it was 91%.

For `CC1(C)CCC(C)(C)c2cc(-c3ccc(-c4ccc(O)c(=O)cc4)o3)ccc21` [Tp200], the “Ratio of cells for which differentiation was induced by each compound alone (%)” value is reported as 36% in data set [1] (concentration -6 (1×10^−6 M)), 14% in data set [1] (concentration -7 (1×10^−7 M)) and 2% in data set [1] (concentration -8 (1×10^−8 M)). The results for the “Ratio of cells for which differentiation was induced by each compound in combination with 1 × 10^−7 M of HX630 (%)” value in data set [1] (setting [2]), in data set [1] (setting [3]) and in data set [1] (setting [4]) were 50%, 95% and 77%, respectively.

In the case of `CC1(C)CCC(C)(C)c2cc(Nc3ccc(O)c(=O)cc3)ccc21` [Tp10], the figures for the “Ratio of cells for which differentiation was induced by each compound alone (%)” value in data set [1] (concentration -6 (1×10^−6 M)), in data set [1] (concentration -7 (1×10^−7 M)) and in data set [1] (concentration -8 (1×10^−8 M)) were 3.3%, 2.9% and 6.8%, respectively. Moreover, the results for the “Ratio of cells for which differentiation was induced by each compound in combination with 1 × 10^−7 M of HX630 (%)” value in data set [1] (setting [2]), in data set [1] (setting [3]) and in data set [1] (setting [4]) were 5.6%, 2.9% and 3%, respectively.

For `Cc1cc2c(cc1C#Cc1ccc(O)c(=O)cc1)C(C)(C)CCC2(C)C` [Tp145], the “Ratio of cells for which differentiation was induced by each compound alone (%)” value in data set [1] (concentration -6 (1×10^−6 M)) is on record as 70%; in data set [1] (concentration -7 (1×10^−7 M)), 76%; in data set [1] (concentration -8 (1×10^−8 M)), 73%. Also, the “Ratio of cells for which differentiation was induced by each compound in combination with 1 × 10^−7 M of HX630 (%)” value in data set [1] (setting [2]) was determined as 77%; in data set [1] (setting [3]) it was 75%; in data set [1] (setting [4]), 82%.

For the compound `CC1(C)CCC(C)(C)c2cc3cc(-c4ccc(O)c(=O)cc4)ccc3cc21` [Tp250], the “Ratio of cells for which differentiation was induced by each compound alone (%)” value in data set [1] (concentration -6 (1×10^−6 M)) is 56%; in data set [1] (concentration -7 (1×10^−7 M)), 66%; in data set [1] (concentration -8 (1×10^−8 M)), 63%. Besides, the “Ratio of cells for which differentiation was induced by each compound in combination with 1 × 10^−7 M of HX630 (%)” value in data set [1] (setting [2]) is 79%; in data set [1] (setting [3]), 84%; in data set [1] (setting [4]), 91%.

As to `CC1(C)CCC(C)(C)c2cc(CCc3ccc(O)c(=O)cc3)ccc21` [Tp150], the “Ratio of cells for which differentiation was induced by each compound alone (%)” value in data set [1] (concentration -6 (1×10^−6 M)) is 60%; in data set [1] (concentration -7 (1×10^−7 M)), 5.4%; in data set [1] (concentration -8 (1×10^−8 M)) it was 1.5%. The “Ratio of cells for which differentiation was induced by each compound in combination with 1 × 10^−7 M of HX630 (%)” value in data set [1] (setting [2]) worked out at 50%; in data set [1] (setting [3]), 80%; in data set [1] (setting [4]), 9%.

On to `CC1(C)CCC(C)(C)c2cc(C(=O)Nc3ccc(O)c(=O)cc3)ccc21` [Tp80], for which the “Ratio of cells for which differentiation was induced by each compound alone (%)” value in data set [1] (concentration -6 (1×10^−6 M)) is reported as 21%; in data set [1] (concentration -7 (1×10^−7 M)), 26%; in data set [1] (concentration -8 (1×10^−8 M)), 7%. Further, the “Ratio of cells for which differentiation was induced by each compound in combination with 1 × 10^−7 M of HX630 (%)” value in data set [1] (setting [2]) was found to be 79%; in data set [1] (setting [3]) it was 85%; in data set [1] (setting [4]) it was 82%.

With `CC(C)(C)c1cc(C#Cc2ccc(O)c(=O)cc2)cc(C(C)(C)C)c1` [Tp155], the entries for the “Ratio of cells for which differentiation was induced by each compound alone (%)” value in data set [1] (concentration -6 (1×10^−6 M)), in data set [1] (concentration -7 (1×10^−7 M)) and in data set [1] (concentration -8 (1×10^−8 M)) were 62.5%, 24% and 2.7%, respectively. The “Ratio of cells for which differentiation was induced by each compound in combination with 1 × 10^−7 M of HX630 (%)” value in data set [1] (setting [2]) amounted to 78%; in data set [1] (setting [3]) it was 89%; in data set [1] (setting [4]), 68%.

Values taken from patent US20040082550A1, “Tropolone derivative” (priority 2000, published 2004).
